Laboratory results from patent US20240391923A1, “METHIONINE ADENOSYLTRANSFERASE 2A INHIBITOR FOR TREATING MTAP DELETION-TYPE CANCER” (SUZHOU GENHOUSE BIO CO., LTD., priority 2022, published 2024).
Where two headings read alike, the source gives them in different places.

Experiments:
[1] = Pharmacokinetic test in mice (IV and PO); format: in vivo; conditions: BALB/c mice; for AUC / clearance / bioavailability / half-life / Vd: mouse, plasma; for half-life: read-out: T½ (converted); for Vd: read-out: Vz
[2] = test system: HCT116-MTAP-knockout (−/−) cell strain; assay: Tumor cell proliferation inhibition assay (CellTiter-Glo), HCT116-MTAP-knockout (-/-); format: cell-based; conditions: Homo sapiens, 120 h, HCT116-MTAP-knockout (−/−) cells, 5-day treatment
Procedure, shortened: (§1)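 Ten-point compound titration (1:3, highest 10 μM) started 24 h after plating, DMSO group included; cultures kept 5 days at 37° C. with 5% CO2 before CellTiter-Glo ATP readout of growth inhibition.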

[3] = molecular target: T1, hERG potassium current (Homo sapiens, UniProt Q12809); assay: hERG inhibition test (whole-cell patch clamp, Qpatch); format: cell-based; conditions: initial concentration 30 μM, 6 concentration points
T1 construct: expressed in transfected cells; host or cells: HEK293, cultured under G418 selection
Procedure: The BEK293 cells were cultured in a DiVEM medium containing […] and 0.8 mg/mL G418 at 37° C. with 5% o CO2. The cells were digested by TrypLE™ Express and centrifuged. The cell density was adjusted to 2×10^6 cells/mL. The cells were gently mixed for 15-20 min using a shaker equilibrated at room temperature, and subjected to patch clamping on a machine. The medium of the prepared cells was replaced with extracellular fluid. The intracellular fluid and the extracellular fluid were taken from the fluid pool, and respectively added to the intracellular fluid pool and the cell and the test substance pool of the QPlate chip. The voltage stimulation of the whole-cell hERG potassium current was recorded by the whole-cell patch clamp, and the test data was collected and stored by Qpatch. The compound was diluted 3-fold at an initial concentration of 30 μM, and 6 concentration points were set, with each drug concentration being set for two administrations over a period of at least 5 min. The current detected in compound-free extracellular fluid for each cell was served as its own control group, and the detection was repeated at least twice independently using two cells per concentration. All electrophysiological experiments were performed at room temperature.
For data analysis, the current acted for each drug concentration and the current of the blank control were standardized
and then the inhibition rate corresponding to each drug concentration was calculated
The mean and standard error were calculated for each concentration, and the half maximal inhibitory concentration of each compound was calculated:
The dose-dependent effect was fitted non-linearly using the above equation, wherein Y represents the inhibition rate, C represents the concentration of the test substance, IC50 is the half maximal inhibitory concentration, and HillSlope represents the Hill coefficient. Curve fitting and calculation of IC50 were performed by Graphpad software.

[4] = test system: SDMA in HCT116-MTAP-knockout cell line; assay: Cell symmetric dimethylarginine (SDMA) test, In-cell Western, HCT116-MTAP-knockout; format: cell-based; conditions: Homo sapiens, 96 h
[5] = test system: Hut-78 cell strain; assay: Tumor cell proliferation inhibition assay (CellTiter-Glo), Hut-78; format: cell-based; conditions: Homo sapiens, HuT78, 120 h, Hut-78 cells, 5-day treatment
Procedure, shortened: as §1

[6] = Saturation solubility of samples in FaSSIF solution; format: physicochemical; conditions: FaSSIF pH 6.5, room temperature overnight
Procedure: About 0.21 g of sodium hydroxide, about 2.24 g of sodium dihydrogen phosphate dihydrate, and 3.09 g of sodium chloride were weighed out and dissolved in 500 mL of water, and then the pH was adjusted to 6.5 with 1 N sodium hydroxide or 1 N hydrochloric acid. 112 mg of FaSSIF solid was weighed out and placed in a 50 mL volumetric flask, and the above buffer was added for dissolution, diluted to volume, mixed well, and left to stand at room temperature for 2 h or more.
• Test sample: about 1 mg of the test sample was taken, and 1 mL of FaSSIF solution was added. The mixture was stirred at room temperature overnight and centrifuged, and the supernatant was collected and injected for analysis. • Control substance solution: about 1.5 mg of the test sample was precisely weighed out and placed in a 50 mL volumetric flask, and DMF was added for dissolution, diluted to volume, and mixed well.
• Mobile phase A: 1000 mL of purified water was accurately weighed out, 1 mL of formic acid was added, and the mixture was mixed well and degassed with ultrasonic. • Mobile phase B: acetonitrile
The peak of the main component of the control substance and the peak of the test substance consistent with the retention time of the peak of the main component of the control substance were integrated, and the concentration thereof in the FaSSIF solution was calculated according to external standard method.

[7] = molecular target: MAT2A recombinant protein (Homo sapiens, UniProt P31153); assay: MAT2A inhibitory activity (malachite green colorimetric enzyme assay); format: biochemical
Procedure, shortened: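 Compounds tested over 10 points, 3-fold dilutions, top final concentration 1000 nM. Enzyme reaction: MAT2A, L-methionine, ATP, room temperature, 60 min, in HEPES pH 7.5 buffer with KCl, MgCl2 and DTT; inorganic phosphate read colorimetrically (malachite green, A630). Inhibition vs log concentration fitted for IC50.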

[8] = IC50 score, read-out: Tumor cell 5-day relative growth inhibition (HCT116-MTAP−/−) (nM), score
[9] = IC50 value, read-out: Tumor cell 5-day relative growth inhibition (HCT116-MTAP−/−)
[10] = IC50 score class, read-out: Cell 96 h SDMA Inhibition (HCT116-MTAP−/−) (score)
[11] = read-out: Cell 96 h SDMA Inhibition (HCT116-MTAP−/−)
[12] = IC50 score, read-out: Tumor cell 5-day relative growth inhibition (Hut-78) (nM), score
[13] = IC50 value, read-out: Tumor cell 5-day relative growth inhibition (Hut-78)
[14] = IC50 score class, read-out: MAT2A Inhibition (score)

Chain of MAT2A recombinant protein (P31153 whole entry): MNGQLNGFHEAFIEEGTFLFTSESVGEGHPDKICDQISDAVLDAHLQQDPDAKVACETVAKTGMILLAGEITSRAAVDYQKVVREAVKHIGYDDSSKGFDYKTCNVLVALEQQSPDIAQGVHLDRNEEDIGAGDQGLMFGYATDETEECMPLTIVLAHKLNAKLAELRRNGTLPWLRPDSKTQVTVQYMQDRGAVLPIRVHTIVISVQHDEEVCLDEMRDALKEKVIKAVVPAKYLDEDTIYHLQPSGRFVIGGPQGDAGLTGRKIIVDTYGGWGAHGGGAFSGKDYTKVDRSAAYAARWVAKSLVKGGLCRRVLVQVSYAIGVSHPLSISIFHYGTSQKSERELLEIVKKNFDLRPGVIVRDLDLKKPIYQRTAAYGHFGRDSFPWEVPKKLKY
T1 sequence (Q12809 whole entry): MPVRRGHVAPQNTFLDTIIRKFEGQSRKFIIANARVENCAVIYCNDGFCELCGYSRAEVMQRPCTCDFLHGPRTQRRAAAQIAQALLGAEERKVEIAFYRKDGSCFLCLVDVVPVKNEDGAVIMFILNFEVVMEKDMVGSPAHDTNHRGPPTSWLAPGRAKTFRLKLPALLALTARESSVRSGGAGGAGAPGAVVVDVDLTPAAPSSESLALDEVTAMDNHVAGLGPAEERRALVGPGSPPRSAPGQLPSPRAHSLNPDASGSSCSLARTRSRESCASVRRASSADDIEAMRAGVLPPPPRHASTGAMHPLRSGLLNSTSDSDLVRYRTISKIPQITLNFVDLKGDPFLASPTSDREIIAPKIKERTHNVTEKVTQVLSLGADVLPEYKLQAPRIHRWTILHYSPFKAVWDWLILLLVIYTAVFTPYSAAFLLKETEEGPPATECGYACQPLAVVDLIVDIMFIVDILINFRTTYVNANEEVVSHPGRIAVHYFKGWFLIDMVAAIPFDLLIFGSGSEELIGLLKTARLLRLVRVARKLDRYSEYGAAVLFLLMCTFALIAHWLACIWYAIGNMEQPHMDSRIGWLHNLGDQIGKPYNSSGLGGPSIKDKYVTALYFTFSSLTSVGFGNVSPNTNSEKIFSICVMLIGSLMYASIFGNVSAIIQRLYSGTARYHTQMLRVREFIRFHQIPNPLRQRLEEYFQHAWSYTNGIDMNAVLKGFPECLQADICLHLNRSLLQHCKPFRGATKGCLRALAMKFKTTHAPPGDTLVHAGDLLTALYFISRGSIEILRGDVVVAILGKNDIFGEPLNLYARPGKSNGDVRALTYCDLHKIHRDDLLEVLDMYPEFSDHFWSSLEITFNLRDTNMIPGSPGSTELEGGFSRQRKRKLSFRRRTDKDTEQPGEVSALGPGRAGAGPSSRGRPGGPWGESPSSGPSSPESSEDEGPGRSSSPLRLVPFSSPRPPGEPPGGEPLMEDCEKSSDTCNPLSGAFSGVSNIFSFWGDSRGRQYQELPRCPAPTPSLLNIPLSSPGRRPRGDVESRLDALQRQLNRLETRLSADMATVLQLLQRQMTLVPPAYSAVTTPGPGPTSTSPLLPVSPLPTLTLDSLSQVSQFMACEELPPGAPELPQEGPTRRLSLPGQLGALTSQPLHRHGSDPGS

SMILES	AUC ([1]; IV 2 mg/kg) [µM·h]	clearance ([1]; IV 2 mg/kg) [mL/min/kg]	bioavailability ([1]; IV 2 mg/kg, PO 10 mg/kg) [%]	half-life ([1]; IV 2 mg/kg) [min]	Vd ([1]; IV 2 mg/kg) [L/kg]	AUC ([1]; PO 10 mg/kg) [µM·h]	half-life ([1]; PO 10 mg/kg) [min]	IC50 [2, 8] [nM]	IC50 [2, 9] [nM]	IC50 [4, 10] [nM]	IC50 [4, 11] [nM]	IC50 [5, 12] [nM]	IC50 [5, 13] [nM]	AUC (in words) ([1]; summary of Table 7)	half-life (T½) (in words) ([1]; summary of Table 7)	FaSSIF (pH = 6.5) (μg/mL) [6] [μg/mL]	IC50 [7, 14] [nM]	IC50 ([7]; read-out: MAT2A Inhibition) [nM]	IC50 [3] [µM]	other results
Cn1cc2c(n1)c(=O)n(-c1cccnc1)c1cc(Cl)ccc21 [Compound B12]	4.5	22.7		58.8	1.9	26.8	48.6	< 500	383	200 to 1000	219	< 500	145						> 30	
Cn1cc2c(n1)c(=O)n(-c1cccc3[nH]ncc13)c1cc(Cl)ccc21 [Compound B60]	119	0.667	115	600	0.6	683	540	< 500	12.6	< 200	34.9	< 500	37.1	relatively high	relatively long	20.9	< 100	47.5	> 40	
Cn1cc2c(n1)c(=O)n(-c1cccc3[nH]ncc13)c1cc(Cl)c(F)cc21 [Compound B257]	49.8	0.917	220	588	0.8	2110	2050	< 500	27.5	< 200	70			relatively high	relatively long	248	< 100	39.6	> 30	
Cn1cc2c(n1)c(=O)n(-c1cccc3[nH]ncc13)c1cc(Cl)c(C#N)cc21 [Compound B258]	21.4	2.08		852	2.6			< 500	235	< 200	67.6			relatively high	relatively long	131	< 100	28		tissue distribution (in words) ([1]; concluded from Vz, Table 7): good; Vz value (in words) ([1]; summary of Table 7): relatively high; bioavailability ([1]; IV 2 mg/kg, PO 5 mg/kg): 93%; AUC ([1]; PO 5 mg/kg): 80.7 µM·h; half-life ([1]; PO 5 mg/kg): 462 min
Cn1cc2c(n1)c(=O)n(-c1cccnc1C1CC1)c1cc(Cl)c(F)cc21 [Compound B340]	46	1.83		558	1.58	219	462	< 500	394	< 200	12					36				

The next lines start with results.

AUC ([1]; IV 2 mg/kg) [µM·h]	clearance ([1]; IV 2 mg/kg) [mL/min/kg]	bioavailability ([1]; IV 2 mg/kg, PO 10 mg/kg) [%]	half-life ([1]; IV 2 mg/kg) [min]	Vd ([1]; IV 2 mg/kg) [L/kg]	AUC ([1]; PO 10 mg/kg) [µM·h]	half-life ([1]; PO 10 mg/kg) [min]	IC50 [2, 8] [nM]	IC50 [2, 9] [nM]	IC50 [4, 10] [nM]	IC50 [4, 11] [nM]	IC50 [5, 12] [nM]	IC50 [5, 13] [nM]	AUC (in words) ([1]; summary of Table 7)	half-life (T½) (in words) ([1]; summary of Table 7)	FaSSIF (pH = 6.5) (μg/mL) [6] [μg/mL]	IC50 [7, 14] [nM]	IC50 ([7]; read-out: MAT2A Inhibition) [nM]	SMILES	IC50 [3] [µM]	other results
3.37	27.3	274	9.6	0.4	46.2	30.6	< 500	9.6	< 200	10.3	< 500	17.4						Cc1ncccc1-n1c(=O)c2nn(C)cc2c2ccc(C(F)(F)F)nc21 (single isomer, unassigned) [Compound B180]	> 30	
									< 200	49.2	< 500	135				< 100	24.6	Cn1cc2c(n1)c(=O)n(-c1cccc(O)c1)c1nc(C(F)(F)F)ccc21 [Compound B148]	> 30	
							< 500	59.1	< 200	37.1	< 500	184				< 100	19	O=c1c2n[nH]cc2c2ccc(C(F)(F)F)nc2n1-c1cccnc1 [Compound B178]	> 30	
34.3	2.33	131	438	1.4	242	207	< 500	14.6	< 200	29	< 500	36.5	relatively high	relatively long	20.7	< 100	14.7	Cn1cc2c(n1)c(=O)n(-c1cccc3[nH]ncc13)c1nc(C(F)(F)F)ccc21 [Compound B181]	> 30	
							500 to 2000	1860	< 200	176	500 to 2000	1220			17.6	< 100	56.9	Cn1cc2c(n1)c(=O)n(-c1ccccc1Cl)c1nc(C(F)(F)F)ccc21 [Compound B182]		
